Conditions: Fluid (supercritical or subcritical phases), Buoyancy - hydrostatic balance with magnetic suspension - one sinker

FC(F)Cl [chlorodifluoromethane]
specific volume [m3/kg]
Conditions | 298.2 K | 323.2 K | 348.2 K | 373.2 K | 423.2 K | 473.2 K | 523.2 K | 573.2 K
10000 kPa | 0.000815 | 0.00087 | 0.000955 | 0.001091 | 0.002006 | 0.003216 | 0.004117 | 0.004957
20000 kPa | 0.000787 | 0.000831 | 0.000887 | 0.000967 | 0.001169 | 0.001531 | 0.001932 | 0.00244
30000 kPa | 0.000771 | 0.00081 | 0.000852 | 0.000907 | 0.001037 | 0.00121 | 0.001431 | 0.001751
40000 kPa | 0.000755 | 0.00079 | 0.000828 | 0.000875 | 0.000973 | 0.001089 | 0.001241 | 0.001393
50000 kPa | 0.000743 | 0.000773 | 0.000807 | 0.000842 | 0.000923 | 0.001015 | 0.001126 | 0.001258
75000 kPa | 0.000717 | 0.000743 | 0.000768 | 0.000797 | 0.000856 | 0.000922 | 0.000987 | 0.00105
100000 kPa | 0.000698 | 0.000715 | 0.000742 | 0.000765 | 0.000814 | 0.000867 | 0.00092 | 0.000968
125000 kPa | 0.000682 | 0.000699 | 0.000719 | 0.000741 | 0.000784 | 0.00083 | 0.000872 | 0.000911
150000 kPa | 0.00067 | 0.000683 | 0.000701 | 0.000722 | 0.000759 | 0.000797 | 0.000835 | 0.00087
175000 kPa | 0.000657 | 0.00067 | 0.000686 | 0.000705 | 0.000738 | 0.000772 | 0.000808 | 0.00084
200000 kPa | 0.000646 | 0.00066 | 0.000674 | 0.000689 | 0.000721 | 0.000754 | 0.000785 | 0.000814
225000 kPa | 0.000638 | 0.000651 | 0.000663 | 0.000677 | 0.000707 | 0.000735 | 0.000764 | 0.00079
250000 kPa | 0.00063 | 0.000643 | 0.000655 | 0.000667 | 0.000695 | 0.00072 | 0.000744 | 0.000767
275000 kPa | 0.000624 | 0.000635 | 0.000646 | 0.000658 | 0.000682 | 0.000705 | 0.000728 | 0.000749
300000 kPa | 0.000617 | 0.000628 | 0.000639 | 0.00065 | 0.000673 | 0.000694 | 0.000714 | 0.000732
325000 kPa | 0.000611 | 0.000621 | 0.000632 | 0.000642 | 0.000661 | 0.000683 | 0.000698 | 0.000717
350000 kPa | 0.000606 | 0.000616 | 0.000625 | 0.000636 | 0.000655 | 0.000671 | 0.000687 | 0.000704
375000 kPa | 0.0006 | 0.00061 | 0.000619 | 0.000629 | 0.000645 | 0.000661 | 0.000676 | 0.000692
400000 kPa | 0.000596 | 0.000605 | 0.000614 | 0.000623 | 0.000638 | 0.000652 | 0.000666 | 0.00068
425000 kPa | 0.000591 | 0.0006 | 0.000608 | 0.000617 | 0.000631 | 0.000644 | 0.000658 | 0.000671
450000 kPa | 0.000587 | 0.000595 | 0.000603 | 0.000612 | 0.000625 | 0.000637 | 0.000649 | 0.000663
475000 kPa | 0.000582 | 0.00059 | 0.000598 | 0.000606 | 0.000619 | 0.000629 | 0.00064 | 0.000651
500000 kPa | 0.000579 | 0.000586 | 0.000594 | 0.000602 | 0.000614 | 0.000623 | 0.000633 | 0.000643

Source: the NIST ThermoML archive (doi:10.1021/je060371g)
